Source: US12576070B2, “Medicine for improving state of pregnancy, and use thereof” (priority 2014, dated 2026)

Legend:
[1] = test system: women with a history of or susceptible to pregnancy-induced hypertension syndrome; assay: Tacrolimus treatment of women at risk of pregnancy-induced hypertension syndrome (Example 3); type: in vivo, human
Protocol: Once pregnancy-induced hypertension syndrome develops, the possibility of experiencing repeated onset in the subsequent gestations is very high. The patients were evaluated through a transvaginal ultrasound examination, a Fallopian tube patency test, and hysteroscopy before an index ART cycle. […] Any women who had experienced miscarriage in the previous IVF cycle, who had received an IVF cycle, or who had received vaccination, all within three months, were excluded from the subjects. Any women with acquired or congenital thrombophilia were excluded from the subjects. All the patients were subjected to treatment with tacrolimus in the same manner as in Example 2. The dose of tacrolimus was 1 mg to 3 mg per day. The duration of administration of tacrolimus was from the time point immediately after establishment of pregnancy was confirmed by a pregnancy test, until the day of delivery, in all cases. In Case 1 and Case 3 described below, 3 mg of tacrolimus per day was administered everyday from the time point immediately after establishment of pregnancy was confirmed and until the second trimester of pregnancy, and 2 mg of tacrolimus per day was administered everyday from the third trimester of pregnancy until the delivery. In Case 2 described below, 2 mg of tacrolimus per day was administered everyday from the time point immediately after establishment of pregnancy was confirmed and until the delivery. The treatment was carried out in the same manner as in Example 2. The effects of administering tacrolimus were evaluated on the basis of whether the patients satisfactorily maintained the state of pregnancy without developing pregnancy-induced hypertension syndrome at predetermined time points between the second trimester and the third trimester of pregnancy. Cases in which the evaluation has been roughly completed are as follows.

[2] = test system: patient with a past history of both eclampsia and HELLP syndrome; assay: Tacrolimus monotherapy in a patient with past history of eclampsia and HELLP syndrome (Example 4); type: in vivo, human; settings: for ALT (U/L) / AST (U/L) / Cr / Hb / LDH (U/L) / Plt (10^4/uL) / WBC: blood examination, with tacrolimus treatment
Description: The patient was a person (y.o.) […] with a past history of both eclampsia and HELLP syndrome. During the first pregnancy when the patient was […], they complained of physical deconditioning from early in their pregnancy. […] Sudden aggravation of the edema, proteinuria and hypertension appeared at 18 weeks gestation, at which time they were diagnosed with preeclampsia. HELLP syndrome and eclampsia occurred at 20 weeks gestation and a stillbirth required an emergency cesarean section. After delivery of the baby, they had severe complications such as pulmonary edema, disseminated intravascular coagulation, and intraperitoneal bleeding. They were medicated via an artificial respirator, and received albumin and a blood transfusion (Table 6). […] Laboratory findings related to infertility such as antiphospholipid syndrome (anti-CL IgG Ab, anti-CL IgM Ab, anti-β2GP-1 Ab, anti-PS/PT Ab, anti-PE IgG Ab, anti-PE IgM Ab), autoimmune disease (ANA and anti-DNA Ab), and disorders of blood coagulation (protein S activity, protein C activity, factor XII activity) were all negative. Although no obvious immunological abnormalities of the Th1(CD4^+IFN-γ+)/Th2 (CD4+IL-4^+) cell ratio (15.2/2.1) in CD4 positive cells (normal range, <10.3) were observed before pregnancy^46, it was assumed that maternal immunity would be activated by the embedding of a fertilized ovum (recognition of fetal antigens) and the abnormalities of maternal-fetal immunity may have inhibited placenta construction and caused fetal growth retardation and hypertension. The patient was treated with 1 mg/day of tacrolimus to control the maternal-fetal immunity. This patient received a monotherapy of tacrolimus without a concomitant treatment of a low dose of aspirin, which is often used as an anti-platelet agent for HDP^47. The course of the pregnancy was stable until the 3rd trimester, and no significant symptoms were observed during the 2nd trimester, at which point HELLP syndrome occurred in their previous pregnancy. Clinical signs of HELLP syndrome rapidly appeared, however, at 33 weeks gestation. A decrease in the Th1 and Th2 cell populations in CD4 positive cells and a reduction in the activity of NK cells over time post-partum were observed, which confirms that the tacrolimus regimen exerted sufficient suppressive effect on those cells, whereas the activity of NK cells was elevated at 32 weeks gestation. A possibility was speculated that NK cell activity was stimulated when a large number of fetal antigens were transferred to the maternal blood circulation after the suppression of the NK cells by the 1 mg/day dose of tacrolimus became insufficient in the 3rd trimester. […] Th1 and Th2 cell populations in CD4 positive cells and the NK cell activity were measured to evaluate the patient's pathological condition. One of the parameters, NK cell activity, indicated an appearance of abnormal maternal-fetal immunity. Other parameters that can be used to evaluate the failure of maternal tolerance for a fetus and activation of maternal immune rejection against a fetus with inflammation include Treg cells, Th17 cells, cytokines, and chemokines^37-44.

[3] = Current pregnancy with tacrolimus treatment 1 mg/day
[4] = Current pregnancy with tacrolimus treatment 1 mg/day, after delivery
[5] = Current pregnancy with tacrolimus treatment 1 mg/day, before delivery

Q: For `C=CCC1/C=C(\C)CC(C)CC(OC)C2OC(O)(C(=O)C(=O)N3CCCCC3C(=O)OC(/C(C)=C/C3CCC(O)C(OC)C3)C(C)C(O)CC1=O)C(C)CC2OC` (centres unmarked) [tacrolimus, 17-Allyl-1,14-dihydroxy-12-[2-(4-hydroxy-3-methoxycyclohexyl)-1-methylvinyl]-23,2 5-dimethoxy-13,19,21,27-tetramethyl-11,28-dioxa-4-azatricyclo[22.3.1.04,9]octacos-18-ene-2,3,10,16-tetraone], which “increase in blood pressure” value ([1]; Case 1 (intrauterine fetal death in week 38 in previous gestation), 3 mg per day until second trimester, 2 mg per day from third trimester until delivery) is on record?
A: did not experience an increase in blood pressure

Q: And the “gave birth to a healthy baby in week” value ([1]; Case 1, 3 mg per day until second trimester, 2 mg per day from third trimester until delivery)?
A: 39 week

Q: And the “increase in blood pressure” value ([1]; Case 2 (twin pregnancy with infertilitas and positive anti-phosphorus antibody), 2 mg per day until delivery)?
A: did not experience an increase in blood pressure

Q: What about the “gave birth to a healthy baby in week” value ([1]; Case 2, 2 mg per day until delivery, premature rupture of the membrane caused by cough, premature birth of twin) of the same compound?
A: 35 week

Q: And the “edema and tendency of blood pressure increase” value ([1]; Case 3 (intrauterine fetal death in week 32 in previous gestation), 3 mg per day until second trimester, 2 mg per day from third trimester)?
A: without edema and without a tendency of blood pressure increase

Q: And the “currently passing week of pregnancy” value ([1]; Case 3, 3 mg per day until second trimester, 2 mg per day from third trimester)?
A: 34 week

Q: What about the “Fetal information: fetal growth” value [2, 3] of the same compound?
A: −1.9 SD

Q: And the “start of proteinuria (weeks gstation)” value [2, 3]?
A: 33 weeks gstation

Q: And the “Symptoms: edema” value [2, 4]?
A: slight

Q: What about the “Symptoms: hypertension” value [2, 4] of the same compound?
A: transient

Q: What about the complications after deliverly [2, 4] of the same compound?
A: none

Q: What about the “Symptoms: edema” value [2, 5] of the same compound?
A: slight

Q: And the “Symptoms: hypertension” value [2, 5]?
A: not observed

Q: And the “ALT (U/L)” value ([2]; after delivery)?
A: 833 U/L

Q: And the “AST (U/L)” value ([2]; after delivery)?
A: 898 U/L

Q: And the “Cr” value ([2]; after delivery)?
A: 0.59 mg/dL

Q: And the “Hb” value ([2]; after delivery)?
A: 10.5 g/dL

Q: What about the “LDH (U/L)” value ([2]; after delivery) of the same compound?
A: 1995 U/L

Q: What about the “Plt (10^4/uL)” value ([2]; after delivery) of the same compound?
A: 2.2 10^4/uL

Q: And the WBC ([2]; after delivery)?
A: 8220 cells/µL

Q: What about the “ALT (U/L)” value ([2]; before delivery) of the same compound?
A: 71 U/L

Q: And the “AST (U/L)” value ([2]; before delivery)?
A: 65 U/L

Q: And the “Cr” value ([2]; before delivery)?
A: 1 mg/dL

Q: What about the “Hb” value ([2]; before delivery) of the same compound?
A: 11 g/dL

Q: What about the “LDH (U/L)” value ([2]; before delivery) of the same compound?
A: 316 U/L

Q: What about the “Plt (10^4/uL)” value ([2]; before delivery) of the same compound?
A: 10 10^4/uL

Q: And the WBC ([2]; before delivery)?
A: 8280 cells/µL

Q: What about the “Th1 and Th2 cell populations in CD4 positive cells” value ([2]; during pregnancy, with time, tacrolimus 1 mg/day (FIG. 1)) of the same compound?
A: decrease

Q: What about the NK cell activity ([2]; during pregnancy, normal range 18-40%, tacrolimus 1 mg/day (FIG. 1)) of the same compound?
A: decreased in the 2nd trimester and then obviously increased at 32 weeks gestation

Q: And the “course of the pregnancy stable with no emergence of proteinuria, edema or hypertension until” value ([2]; tacrolimus 1 mg/day monotherapy)?
A: 32 weeks gestation

Q: What about the “Clinical signs of HELLP syndrome appeared at” value ([2]; tacrolimus 1 mg/day monotherapy, previous pregnancy: 20 weeks gestation) of the same compound?
A: 33 weeks gestation

Q: What about the “prolonged the timing of onset of HELLP syndrome” value ([2]; tacrolimus 1 mg/day versus previous pregnancy without treatment) of the same compound?
A: about 13 weeks gestation
